Here are results for 81 compounds from the RepoRT retention time repository.

The series in a line: HILIC, Waters ACQUITY UPLC BEH Amide, 100 × 2.1 mm, 1.7 µm; A: water + 0.125% formic acid + 10 mM ammonium formate; B: 5% water + 95% acetonitrile + 0.125% formic acid + 10 mM ammonium formate; gradient (min/%B) 0/100 2/100 7.7/70 9.5/40 10.25/30 12.75/100 17/100. Particulars: stereoisomer not certain.
In the case of `NCCCCC(=O)O` [5-Aminovaleric acid], the LC retention time was found to be 7.24 min.
With `CC(C)CCCC(C)C1CCC2C3C(O)C=C4CC(O)CCC4(C)C3CCC12C` (stereo not drawn) [5-Cholesten-3-beta-7-alpha-diol] the figure was 3.36 min; with `O=c1ncc(F)c[nH]1` [5-Fluro-2-pyrimidone], 1.77 min; with `Nc1[nH]c(=O)ncc1F` [5-Flurocytosine], 4.62 min.
With `O=C(O)Cc1c[nH]c2ccc(O)cc12` [5-Hydroxy-3-indoleacetic acid] the figure was 1.78 min; with `Nc1nc(=O)n(C2OC(CO)C(O)C2O)cc1CO` (stereo unspecified) [5-Hydroxymethylcytidine], 7.54 min; with `Nc1[nH]c(=O)ncc1CO` [5-Hydroxymethylcytosine], 6.9 min.
With `NC(Cc1c[nH]c2ccc(O)cc12)C(=O)O` (stereo unspecified) [5-Hydroxytryptophan] the figure was 7.48 min; with `OCCc1c[nH]c2ccc(O)cc12` [5-Hydroxytryptophol], 5.93 min; with `COc1ccc2[nH]cc(CC(=O)O)c2c1` [5-Methoxy-3-indoleacetic acid], 1.32 min.
For `COc1c2ccoc2cc2oc(=O)ccc12` [5-Methoxypsoralen], the LC retention time was 1.07 min.
With `COc1ccc2[nH]cc(CCN)c2c1` [5-Methoxytryptamine] the figure was 4.99 min.
Consider `COc1ccc2[nH]cc(CCO)c2c1` [5-Methoxytryptophol], for which the LC retention time came to 1.18 min.
As to `COc1cn(C2OC(CO)C(O)C2O)c(=O)[nH]c1=O` (stereo unspecified) [5-Methoxyuridine], the LC retention time worked out at 4.72 min.
With `Cc1cn(C2OC(CO)C(O)C2O)c(=S)[nH]c1=O` (stereo unspecified) [5-Methyl-2-thiouridine] the figure was 1.98 min.
As to `Cc1cn(C2OC(CO)CC2O)c(=O)[nH]c1=O` (stereo unspecified) [5-Methyl-3-deoxyuridine], the LC retention time was 2.6 min.
With `Cc1cn(C2OC(CO)C(O)C2O)c(=O)nc1N` (stereo unspecified) [5-Methylcytidine] the figure was 6.39 min.
`Cc1cnc(=O)[nH]c1N` [5-Methylcytosine]: the LC retention time amounted to 6.62 min.
With `Cc1cn(C2OC(CO)C(O)C2O)c(=O)[nH]c1=O` (stereo unspecified) [5-Methyluridine] the figure was 4.19 min; with `CCCCCCCCCOc1ccc2[nH]cc(CCN)c2c1` [5-Nonyloxytryptamine], 3.4 min; with `Nc1ccc2cn[nH]c2c1` [6-Aminoindazole], 1.26 min.
With `O=c1cnn(C2OC(CO)C(O)C2O)c(=O)[nH]1` (stereo unspecified) [6-Azuridine] the figure was 4.31 min.
As for `O=C(O)CCCCCO` [6-Hydroxycaproic acid], the LC retention time amounted to 1.34 min.
For the compound `O=c1cc(-c2ccccc2)oc2ccc(O)cc12` [6-Hydroxyflavone], the LC retention time is 1.26 min.
`CC(C)=CCCC(C)O` (stereo unspecified) [6-Methyl-5-hepten-2-ol]: the LC retention time is 7.3 min.
With `CNc1ncnc2c1ncn2C1OC(CO)C(O)C1O` (stereo unspecified) [6-Methyladenosine] the figure was 3.56 min; with `CSc1ncnc2nc[nH]c12` [6-Methylmercaptopurine], 1.49 min; with `CC(O)C(O)C1=Nc2c(nc(N)[nH]c2=O)NC1` (stereo unspecified) [7,8-Dihydrobiopterin], 7.18 min.
With `Cn1c[n+](C2OC(CO)C(O)C2O)c2nc(N)nc([O-])c21` (stereo unspecified) [7-Methylguanosine] the figure was 7.34 min.
With `O=[N+]([O-])c1cccc2cn[nH]c12` [7-Nitroindazole] the figure was 1.03 min; with `Nc1ncnc2c1[nH]c(=O)n2C1CC(O)C(CO)O1` (stereo unspecified) [8-Oxo-2-deoxyadenosine], 5.11 min.
Take `CC12CCC3c4ccc(O)cc4CCC3C1CC(OC1OC(C(=O)O)C(O)C(O)C1O)C2O` (stereo unspecified) [16-Glucuronide-estriol]: the LC retention time was 6.49 min.
With `O=C(O)CC1C(=O)Nc2ccccc21` (stereo unspecified) [(2-oxo-2,3-dihydro-1H-indol-3-yl)acetic acid] the figure was 2.02 min; with `CCCC(=O)OC(CC(=O)[O-])C[N+](C)(C)C` [(R)-Butyrylcarnitine], 5.77 min.
With `CN1C(=O)CCC1c1ccc[n+]([O-])c1` [(S)-Cotinine N-oxide] the figure was 3.87 min; with `CN(C)C(N)=NCCCC(N)C(=O)O` (stereo unspecified) [ADMA], 8.55 min; with `CCCCCC=CCC=CCC=CCC=CCCCC(=O)Nc1ccc(O)cc1` [AM 404], 0.97 min.
As to `CC(C)C1=CC2=CCC3C(C)(C(=O)O)CCCC3(C)C2CC1` (stereo unspecified) [Abietic acid], the LC retention time came out at 1.11 min.
With `CC(C=CC1(O)C(C)=CC(=O)CC1(C)C)=CC(=O)O` (stereo unspecified) [Abscisic acid] the figure was 1.33 min; with `CC1OC(OC2C(CO)OC(OC3C(CO)OC(O)C(O)C3O)C(O)C2O)C(O)C(O)C1NC1C=C(CO)C(O)C(O)C1O` (stereo unspecified) [Acarbose], 9.88 min.
Turning to `CC(=O)Nc1ccc(OC2OC(C(=O)O)C(O)C(O)C2O)cc1` (stereo unspecified) [Acetaminophen glucuronide], the LC retention time was 7.73 min.
With `CC(=O)Nc1ccc(O)cc1` [Acetaminophen] the figure was 1.37 min; with `CC(=O)Nc1ccccc1` [Acetanilide], 1.11 min; with `CC(=O)NO` [Acetohydroxamic acid], 2.94 min.
`CC(=O)OC(CC(=O)[O-])C[N+](C)(C)C` (stereo unspecified) [Acetylcarnitine]: the LC retention time came out at 7.19 min.
In the case of `CC(=O)N1C(=O)C(=O)c2ccccc21` [Acetylisatin], the LC retention time stood at 2.4 min.
`Cc1c2oc3c(C)ccc(C(=O)NC4C(=O)NC(C(C)C)C(=O)N5CCCC5C(=O)N(C)CC(=O)N(C)C(C(C)C)C(=O)OC4C)c3nc-2c(C(=O)NC2C(=O)NC(C(C)C)C(=O)N3CCCC3C(=O)N(C)CC(=O)N(C)C(C(C)C)C(=O)OC2C)c(N)c1=O` (stereo unspecified) [Actinomycin D]: the LC retention time came to 1.03 min.
With `CC(=O)Nc1ccc(CC(=O)O)cc1` [Actrarit] the figure was 1.58 min; with `Nc1ncnc2nc[nH]c12` [Adenine], 4.71 min; with `Nc1ncnc2c1ncn2C1OC2COP(=O)(O)OC2C1O` (stereo unspecified) [Adenosine 3',5'-cyclic monophosphate], 7.62 min.
With `Nc1ncnc2c1ncn2C1OC(COP(=O)(O)O)C(O)C1O` (stereo unspecified) [Adenosine 5'-monophosphate] the figure was 8.88 min.
With `Nc1ncnc2c1ncn2C1OC(CO)C(OP(=O)(O)O)C1O` (stereo unspecified) [Adenosine-3-monophosphate] the figure was 8.88 min.
As to `Nc1ncnc2c1ncn2C1OC(CO)C(O)C1O` (stereo unspecified) [Adenosine], the LC retention time was found to be 4.77 min.
With `CC12CC(=O)C3C(CCC4=CC(=O)CCC43C)C1CCC2=O` (stereo unspecified) [Adrenosterone] the figure was 1.1 min; with `NCCCCN=C(N)N` [Agmatine], 8.92 min.
With `CC(N)C(=O)NC(C)C(=O)O` (stereo unspecified) [Ala-Ala] the figure was 8.41 min.
With `CC(N)C(=O)NC(CCC(N)=O)C(=O)O` (stereo unspecified) [Ala-Gln] the figure was 9.11 min.
On to `CCC(C)C(NC(=O)C(C)N)C(=O)O` (stereo unspecified) [Ala-Ile], for which the LC retention time came to 7.83 min.
With `CC(C)CC(NC(=O)C(C)N)C(=O)O` (stereo unspecified) [Ala-Leu] the figure was 7.6 min.
With `CC(N)C(=O)NC(C(=O)O)C(C)C` (stereo unspecified) [Ala-Val] the figure was 7.66 min.
As to `CC(N)C(=O)O` (stereo unspecified) [Alanine], the LC retention time was determined as 8.05 min.
With `CCCSc1ccc2nc(NC(=O)OC)[nH]c2c1` [Albendazole] the figure was 1.22 min; with `CC(C)(C)NCC(O)c1ccc(O)c(CO)c1` (stereo unspecified) [Albuterol], 5.55 min; with `COc1cc2nc(N(C)CCCNC(=O)C3CCCO3)nc(N)c2cc1OC` (stereo unspecified) [Alfuzosin], 4.29 min.
Take `NC(=O)NC(NC(N)=O)C(=O)O` [Allantoic acid]: the LC retention time was 8.56 min.
For the compound `Cc1[nH]cnc1CN1CCc2c(c3ccccc3n2C)C1=O` [Alosetron], the LC retention time turned out to be 4.19 min.
With `Cc1nnc2n1-c1ccc(Cl)cc1C(c1ccccc1)=NC2` [Alprazolam] the figure was 1.34 min; with `O=C(c1ccc(F)cc1)C1CCN(CCn2c(=S)[nH]c3ccccc3c2=O)CC1` [Altanserin], 2.64 min.
With `NC12CC3CC(CC(C3)C1)C2` [Amantadine] the figure was 4.88 min; with `NC(N)=NC(=O)c1nc(Cl)c(N)nc1N` [Amiloride], 5.52 min.
With `CCCCc1oc2ccccc2c1C(=O)c1cc(I)c(OCCN(CC)CC)c(I)c1` [Amiodarone] the figure was 1.87 min; with `CCN1CCCC1CNC(=O)c1cc(S(=O)(=O)CC)c(N)cc1OC` (stereo unspecified) [Amisulpride], 2.76 min; with `CC(C)c1ccc2oc3nc(N)c(C(=O)O)cc3c(=O)c2c1` [Amlexanox], 1.81 min.
On to `CCOC(=O)C1=C(COCCN)NC(C)=C(C(=O)OC)C1c1ccccc1Cl` (stereo unspecified) [Amlodipine], for which the LC retention time was 4.24 min.
With `CC(N)Cc1ccccc1` (stereo unspecified) [Amphetamine] the figure was 4.6 min; with `CCOC(=O)OC(C)OC1=C(C(=O)Nc2ccccn2)N(C)S(=O)(=O)c2ccccc21` (stereo unspecified) [Ampiroxicam], 0.95 min.
For `O=C1CN2Cc3c(ccc(Cl)c3Cl)N=C2N1` [Anagrelide], the LC retention time worked out at 1.82 min.
With `CC(C)(C#N)c1cc(Cn2cncn2)cc(C(C)(C)C#N)c1` [Anastrozole] the figure was 0.98 min.
In the case of `CC12CCC3C(CCC4CC(O)CCC43C)C1CCC2O` (stereo unspecified) [Androstane-3,17-diol], the LC retention time stood at 0.96 min.
With `CC12CCC3C(CCC4=CC(=O)CCC43C)C1CCC2=O` (stereo unspecified) [Androstenedione] the figure was 1.09 min.
With `CC12CCC3C(CCC4CC(O)CCC43C)C1CCC2=O` (stereo unspecified) [Androsterone] the figure was 4.62 min.
